# Experimental data published in patent publication US20240025920A1, “SALT FORM USED AS CDC7 INHIBITOR AND CRYSTAL FORM THEREOF” (Chia Tai Tianqing Pharmaceutical Group Co., Ltd., priority 2020, published 2024).
# Read-outs that look alike come from different tables or passages of the source.
# What was measured:
# [1] = Hygroscopicity test (25° C., saturated ammonium chloride solution, 24 h); assay type: physicochemical; conditions: 25° C./80% RH criteria
# Experimental: A dry glass weighing bottle with a lid was placed in a dryer with saturated ammonium chloride solution placed in the lower part, and the weighing bottle was left to stand uncovered. A lid was put on the dryer, and the dryer was placed in a 25° C. box and left to stand overnight. After being left to stand overnight, the weighing bottle was taken out and precisely weighed, and the weight was denoted by m1.
# A proper amount of crystal form A of the compound of formula (II) was measured out and spread in the weighed measuring bottle (the sample was about 1 mm thick). The measuring bottled was then precisely weighed, and the weight was denoted by m2.
# The weighing bottle, together with its lid, was placed in a dryer with saturated ammonium chloride solution placed in the lower part and left to stand uncovered. A lid was put on the dryer, and the dryer was placed in a 25° C. box and left to stand for 24 h. After 24 h of sitting, the lid was put on the weighing bottle and the bottle was taken out and precisely weighed, the weight denoted by m3.
# The hygroscopic weight gain was calculated using the formula: percent weight gain=100%×(m3−m2)/(m2−m1).
# [2] = Stability test under accelerated conditions (HPLC related substances, appearance, crystal form, ee); assay type: physicochemical; set-up: impurity at RRT 0.31 / impurity at RRT 1.40 / impurity at RRT 0.23 / impurity at RRT 0.91 / impurity at RRT 0.98 / impurity at RRT 0.99 / impurity at RRT 1.08: unit not given here
# Experimental: Instrument model: Agilent 1200 high performance liquid chromatograph
# 50 mg of crystal form A of the compound of formula (II) was measured and placed in a dry, clean glass bottle, spread into a thin layer, and left to stand under accelerated conditions (60° C., 25/92.5% RH, 40° C./75% RH and 60° C./75% RH). The sample was completely exposed, and the bottle was covered with aluminum foil in which holes are pricked. Samples were taken at 5 days, 10 days, 1 month, 2 months and 3 months and analyzed.
# COLO205 cells = assay: CellTiter-Glo cell viability assay, proliferation of COLO205 cells; assay type: cell-based, Human; conditions: for IC50: Homo sapiens, COLO 205, 72 h, COLO205, 3 days incubation
# Source text: In the assay, the inhibitory effect of crystal form A of the compound of formula (II) on the proliferation of colorectal cell COLO205 that highly expresses Cdc7 was investigated.
# CellTiter-Glo® Luminescent Cell Viability Assay is a homogeneous rapid assay for the viability of living cells in cultures by ATP quantification. ATP is an indicator of the metabolism of living cells. Cell lysis and the luminescence signals generated are directly proportional to the amount of ATP that exists, and the amount of ATP is directly proportional to the number of living cells in cultures.
# Cells having achieved 80%-90% cell fusion were digested with pancreatin. After the digestion was stopped with 1 mL of culture medium, the cells were transferred to a new culture dish according to a proper proportion, and 10 mL of fresh cell culture medium was added to the culture dish. Then the cell culture dish was placed in a 37° C., 5% CO2 incubator to continue the culture.
# The compound was diluted to 2 mM with 100% DMSO—that is, 5 μL of 10 mM compound stock solution was transferred to column 1 of a 96-well compound plate, 20 μL of 100% DMSO was then added, and the mixture was well mixed. To column 2 through column 9 of the 96-well compound plate was added 20 μL of 100% DMSO. From column 1, 10 μL of compound was transferred to column 2, and the mixture was well mixed. Then 10 μL of compound was transferred from column 2 to column 3, and the mixture was well mixed. This procedure was repeated to column 9 to complete the serial dilution of the compound. Preparation of compound working solutions: From the compound plate, 2 μL/well of compound was transferred to a new 96-well compound plate, and 78 μL/well of cell culture medium was added. To a negative control well was added 2 μL of 100% DMSO followed by 78 μL of cell culture medium. The compound concentration was the final concentration. The blank control well was a culture medium well containing no cells. The negative control was […].
# COLO205 cells having achieved 80%-90% cell fusion were digested with pancreatin and counted. After counting, the cell suspension was diluted with cell culture medium to a desired density. To each well of a 96-well cell culture plate was inoculated 80 μL of cell suspension. […]
# After the incubation, 100 μL of CTG assay reagent was added to each well of the cell plate, and the plate was incubated at 25° C. for 10 min. After the incubation, luminescence signals were measured on Envision.
# The signal value of the background blank control well was subtracted from the measured signal value of each group for standardization. […]
# The percent inhibition was calculated from the original readings according to the calculation formula. A graph was then plotted using Prism and the IC50 of the compound was calculated.
# CDC7/DBF4 kinase = CDC7/DBF4 kinase (Homo sapiens, UniProt O00311); assay: ADP-Glo kinase assay, inhibition of CDC7/DBF4 kinase activity; assay type: biochemical; conditions: for IC50: CDC7/DBF4, 10 μM ATP
# Sequence of CDC7/DBF4 kinase (O00311 whole entry): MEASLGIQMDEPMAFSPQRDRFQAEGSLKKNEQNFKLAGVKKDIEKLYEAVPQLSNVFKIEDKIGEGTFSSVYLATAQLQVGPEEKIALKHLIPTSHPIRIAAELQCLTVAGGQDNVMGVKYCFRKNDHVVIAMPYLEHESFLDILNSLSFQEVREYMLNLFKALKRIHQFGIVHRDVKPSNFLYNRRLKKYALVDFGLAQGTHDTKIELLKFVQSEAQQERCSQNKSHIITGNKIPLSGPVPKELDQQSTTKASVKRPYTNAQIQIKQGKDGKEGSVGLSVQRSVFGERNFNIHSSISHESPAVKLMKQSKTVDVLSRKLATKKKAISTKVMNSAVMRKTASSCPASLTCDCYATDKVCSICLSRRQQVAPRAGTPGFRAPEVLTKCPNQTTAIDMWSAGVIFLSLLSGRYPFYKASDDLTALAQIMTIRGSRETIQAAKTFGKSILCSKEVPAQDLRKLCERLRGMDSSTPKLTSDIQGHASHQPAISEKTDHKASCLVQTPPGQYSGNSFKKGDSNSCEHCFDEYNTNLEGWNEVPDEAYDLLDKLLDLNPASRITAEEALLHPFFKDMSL
# Sequence of CDC7/DBF4 kinase (Q9UBU7 whole entry partner): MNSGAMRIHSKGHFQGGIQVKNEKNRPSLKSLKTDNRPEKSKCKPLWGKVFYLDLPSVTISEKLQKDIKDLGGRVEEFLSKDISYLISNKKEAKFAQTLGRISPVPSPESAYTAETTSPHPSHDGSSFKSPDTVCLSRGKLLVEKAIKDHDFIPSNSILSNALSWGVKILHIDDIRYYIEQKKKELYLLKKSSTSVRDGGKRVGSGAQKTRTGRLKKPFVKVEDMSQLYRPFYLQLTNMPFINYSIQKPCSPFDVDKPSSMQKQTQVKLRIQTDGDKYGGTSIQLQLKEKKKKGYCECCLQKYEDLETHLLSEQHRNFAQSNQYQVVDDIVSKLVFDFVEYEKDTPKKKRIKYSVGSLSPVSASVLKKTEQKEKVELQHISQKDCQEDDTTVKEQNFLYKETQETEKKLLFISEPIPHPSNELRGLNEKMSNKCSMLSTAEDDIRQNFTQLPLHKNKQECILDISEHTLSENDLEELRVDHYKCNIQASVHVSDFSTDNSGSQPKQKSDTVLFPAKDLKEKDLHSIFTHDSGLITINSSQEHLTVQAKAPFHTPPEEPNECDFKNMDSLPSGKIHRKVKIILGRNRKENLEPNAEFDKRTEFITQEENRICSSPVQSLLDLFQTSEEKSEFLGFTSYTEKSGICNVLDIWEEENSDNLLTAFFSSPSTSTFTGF
# Source text: The ADP-Glo™ kinase assay is a chemiluminescent kinase assay. The reaction of kinase with substrate requires ATP to provide energy, thereby converting ATP into ADP. The enzymatic activity is reflected by the amount of ADP produced in the reaction. In the assay, ADP is converted into ATP, and then ATP binds to Ultra-Glo™ Luciferase with light emitted; the intensity of light emission is directly proportional to the amount of ADP.
# The ADP-Glo™ assay was used to investigate the inhibitory effect of crystal form A of the test compound of formula (II) on the activity of CDC7/DBF4 kinase. The highest concentration of the test compound was 10 μM, and 5-fold serial dilution was performed to obtain 8 concentration points. The compound was re-tested on a different day, and each test was performed in duplicate.
# • 1) Preparation of 10 mM DTT (freshly prepared at the time of use) • 1 μL of 0.1 M DTT was measured out and 9 μL of deionized water was added. • 2) 2× assay buffer (freshly prepared at the time of use) • 168 μL of Kinase assay buffer III was measured out and 2.5-fold diluted with 248 μL of deionized water, and 4.2 μL of 10 mM DTT was added. The buffer was kept on ice before use. • 3) 1× assay buffer (freshly prepared at the time of use) • 250 μL of 2× assay buffer was measured out and diluted into 1× assay buffer by adding 250 μL of deionized water. The buffer was kept on ice before use. • 4) ADP-Glo Kinase Assay
# The kit contains an ADP-Glo™ reagent, a kinase assay solution, a kinase assay solution matrix and a 10 mM ATP stock solution.
# Preparation of the kinase assay solution: The kinase assay buffer and the kinase assay solution matrix were equilibrated to room temperature and then mixed. After complete dissolution, the solution was ready. The unused solution should be aliquoted and stored at −20° C.
# ADP-Glo™ reagent: The reagent was equilibrated to room temperature at the time of the first use. The unused solution should be aliquoted and stored at −20° C.
# • 1) 10 mM test compound was diluted to 1 mM with 100% DMSO: 5 μL of 10 mM test compound was added to 45 μL of 100% DMSO; the concentration of the compound dilution was 1 mM, and the dilution was put into row A of a 384-well compound plate as the highest concentration. • 2) To row B through row H of the 384-well compound plate was added 20 μL of 100% DMSO. • 3) From row A, 5 μL of compound was transferred to row B, and the mixture was well mixed. Then 5 μL of compound was transferred from row B to row C, and the mixture was well mixed. This procedure was repeated to row H to complete the serial dilution of the compound. • 4) Preparation of compound working solutions: 0.5 μL/well of compound was transferred to a new 384-well compound plate, and 9.5 μL of 1× assay buffer was added. […]
compound,measurement,setting,value
O=C(O)/C=C\C(=O)O.O=c1[nH]c([C@@H]2CC3CCN2CC3)nc2c3c(sc12)-c1cn[nH]c1CCC3,category of hygroscopicity,[1],non-hygroscopic or hardly hygroscopic
same,Appearance,[2]; 0 days,White
same,ee %,[2]; 0 days,99.028%
same,impurity at RRT 0.31,[2]; 0 days,0.02
same,Appearance,[2]; 25/92.5% RH-5 days,White
same,TRS(%) total impurity content,[2]; 25/92.5% RH-5 days,0.03%
same,ee %,[2]; 25/92.5% RH-5 days,98.77%
same,impurity at RRT 0.31,[2]; 25/92.5% RH-5 days,0.03
same,Appearance,[2]; 25/92.5% RH-10 days,White
same,TRS(%) total impurity content,[2]; 25/92.5% RH-10 days,0.06%
same,ee %,[2]; 25/92.5% RH-10 days,98.958%
same,impurity at RRT 0.31,[2]; 25/92.5% RH-10 days,0.03
same,impurity at RRT 1.40,[2]; 25/92.5% RH-10 days,0.03
same,Appearance,[2]; 40° C./75% RH-1 month,White
same,TRS(%) total impurity content,[2]; 40° C./75% RH-1 month,0.02%
same,ee %,[2]; 40° C./75% RH-1 month,99.380%
same,impurity at RRT 0.31,[2]; 40° C./75% RH-1 month,0.02
same,Appearance,[2]; 40° C./75% RH-2 months,White
same,TRS(%) total impurity content,[2]; 40° C./75% RH-2 months,0.02%
same,ee %,[2]; 40° C./75% RH-2 months,100%
same,impurity at RRT 0.91,[2]; 40° C./75% RH-2 months,0.02
same,Appearance,[2]; 40° C./75% RH-3 months,White
same,TRS(%) total impurity content,[2]; 40° C./75% RH-3 months,0%
same,ee %,[2]; 40° C./75% RH-3 months,100%
same,Appearance,[2]; 40° C./75% RH-10 days,White
same,TRS(%) total impurity content,[2]; 40° C./75% RH-10 days,0.04%
same,ee %,[2]; 40° C./75% RH-10 days,99.164%
same,impurity at RRT 0.23,[2]; 40° C./75% RH-10 days,0.02
same,impurity at RRT 0.31,[2]; 40° C./75% RH-10 days,0.02
same,Appearance,[2]; 60° C.-5 days,White
same,TRS(%) total impurity content,[2]; 60° C.-5 days,0.06%
same,ee %,[2]; 60° C.-5 days,98.632%
same,impurity at RRT 0.23,[2]; 60° C.-5 days,0.03
same,impurity at RRT 0.31,[2]; 60° C.-5 days,0.03
same,Appearance,[2]; 60° C.-10 days,White
same,TRS(%) total impurity content,[2]; 60° C.-10 days,0.10%
same,ee %,[2]; 60° C.-10 days,98.900%
same,impurity at RRT 0.23,[2]; 60° C.-10 days,0.02
same,impurity at RRT 0.31,[2]; 60° C.-10 days,0.03
same,impurity at RRT 1.08,[2]; 60° C.-10 days,0.05
same,Appearance,[2]; 60° C./75% RH-1 month,White
same,TRS(%) total impurity content,[2]; 60° C./75% RH-1 month,0.08%
same,ee %,[2]; 60° C./75% RH-1 month,100%
same,impurity at RRT 0.23,[2]; 60° C./75% RH-1 month,0.02
same,impurity at RRT 0.98,[2]; 60° C./75% RH-1 month,0.03
same,impurity at RRT 0.99,[2]; 60° C./75% RH-1 month,0.03
same,Appearance,[2]; 60° C./75% RH-10 days,White
same,TRS(%) total impurity content,[2]; 60° C./75% RH-10 days,0.03%
same,ee %,[2]; 60° C./75% RH-10 days,98.872%
same,impurity at RRT 0.23,[2]; 60° C./75% RH-10 days,0.03
same,stability (impurity content) under high temperature and high humidity conditions,[2]; conclusion in words,the stability is good
same,IC50,"COLO205 cells; first assay, read-out: COLO205(nM) IC50 First assay",14.3 nM
same,IC50,"COLO205 cells; mean of two assays, read-out: COLO205(nM) IC50 Mean",14.5 nM
same,IC50,"COLO205 cells; second assay, read-out: COLO205(nM) IC50 Second assay",14.7 nM
same,inhibitory effect on COLO205 cells,COLO205 cells; conclusion in words,relatively strong inhibitory effect
same,IC50,"CDC7/DBF4 kinase; first assay, read-out: IC50 (nM) First assay",3.49 nM
same,IC50,"CDC7/DBF4 kinase; mean of two assays, read-out: IC50 (nM) Mean",2.92 nM
same,IC50,"CDC7/DBF4 kinase; second assay, read-out: IC50 (nM) Second assay",2.35 nM
same,inhibitory effect on enzyme CDC7/DBF4,CDC7/DBF4 kinase; conclusion in words,relatively strong inhibitory effect
